Measured values published in US12503510B2, “Small shedding blocking agents” (BIOND BIOLOGICS LTD., priority 2019, dated 2025).
Where two headings read alike, the source gives them in different places.

Columns and labels:
human PBMCs [1] = tested on: human PBMCs
human PBMCs [2] = assay: Soluble CD28 generation in SEB or CMV stimulated PBMCs, human CD28 ELISA; format: cell-based; details: SEB 1 ng/mL; inhibitor 0.01-1 μM
Description: Protease Inhibitors—Protease inhibitors were added at the indicated concentrations at the start of each experiment. In week long assays another portion of the inhibitors was added after 3 days at the final concentration. Protease inhibitors used are TAPI-1 (Cayman, Cat. No. 18505), GM6001 (Santa Cruz, Cat. No. SC-203979), TMI-1 (Sigma, Cat. No. PZ0336) and GI254023X (Sigma, Cat. No. SML0789). Where mentioned the protease cocktail was composed with a mixture of TAPI-1 and GM6001 at equimolar ratio.

isolated PBMCs = assay: CMV stimulated PBMC with constant sCD28 and CD80-Fc titration; format: cell-based, human; details: CMV peptide 3 days
PBMC of cancer patients = assay: SEB stimulated PBMC of cancer patients with sCD28 and MK-3475; format: cell-based, human; details: SEB 5 ng/mL, 3 days
human PBMCs [3] = assay: Lymphocyte clustering of SEB stimulated PBMCs (IncuCyte); format: cell-based; details: SEB 1 ng/mL
Description: Next, human PBMCs were stimulated with SEB (1 ng/mL) without or in the presence of recombinant human CD28. Human IgG was used as control. Lymphocyte clustering, a hallmark of immune activation was monitored using the IncuCyte® S3 Live-Cell, with pictures taken every 12 hours. […] It is well established that during in-vitro immune response antigen presenting cells (APC) cluster with one another and with other cell types, and clustering is essential for the antigen specific activation of resting lymphocytes.

[4] = tested on: H22 hepatocellular carcinoma cells; assay: H22 syngeneic mouse model; format: in vivo; details: Balb/c mice, H22 allograft, with anti-PD-1
[5] = tested on: autologous monocytes and CD3 T cells; assay: Autologous monocytes CD3 MLR with CMV peptide; format: cell-based, human
Description: The mixed cells were stimulated for 5 days with CMV peptide (0.5 μg/mL) with and without increasing concentrations of recombinant human sCD28.
The MLR was run as before only with and without sCD28 and with and without an anti-PD1 antibody (MK3475, 5 μg/mL) (FIG. 8B).

isolated human monocytes = assay: Stimulation of monocytes with recombinant human CD28 (IDO, PD-L1, PD-L2); format: cell-based; details: IFNγ 1000 U/mL, recombinant human CD28 10 μg/mL
Description: Stimulation of monocytes with recombinant human CD28—1.5×10^6 monocytes were plated at 24 well plate in RPMI medium with […] IFN gamma (R&D system, Cat. No. 285-IF) in the presence of recombinant human CD28 at the indicated concentrations for 48 hrs. The generated cell populations were tested for the indicated phenotypes by FACS analysis of relevant markers (IDO, PD-L1 and PD-L2) and by analysis of secretion of characteristic cytokines (IL-6).
The enzyme indoleamine 2,3-dioxygenase (IDO) has been implicated in immune modulation through its ability to catabolize the essential amino acid Tryptophan. It is expressed by different immune cells and also by many cancer cells. Tryptophan shortage inhibits T lymphocytes maturation and proliferation, while Kynurenine, the end product of tryptophan catabolism, is also known as immunosuppressive metabolite that promotes immune tolerance in various physiological and pathophysiological conditions. To test the effect of sCD28 on IDO, isolated human monocytes were stimulated for 48 hr with IFNγ (1000 U/mL) in the presence of control human IgG or with recombinant human CD28 (10 μg/mL). After incubation, the monocytes were stained intracellularly for human IDO (FIG. 7E). To facilitate intracellular staining the cells were fixed and permeabilized with BD Cytofix/Cytoperm Buffer Kit.
In order to elucidate the mechanism by which sCD28 inhibits the pro-activation effect of anti-PD-1 therapy, the expression of PD-1 ligands on immune cells in the presence of sCD28 was examined. Isolated human monocytes were stimulated for 48 hours with IFNγ (1000 U/mL) in the presence of control human IgG (10 μg/mL) or with recombinant human CD28 (10 μg/mL). After incubation the monocytes were stained for PD-L1 (FIG. 8C, left) and PD-L2 (FIG. 8C, right).

[6] = tested on: isolated CD3 human T cells; assay: T cells stimulation with OKT3 and CD80-Fc, IFN gamma; format: cell-based; details: OKT3 2 μg/mL
Description: T cells stimulation with OKT3—0.1×10^6 isolated CD3 T cells (from healthy donors) were stimulated with indicated amount of anti-CD3 clone OKT3 for 48-72 hr at 37° C. When stated recombinant human CD80-Fc (2 μg/mL, R&D system) was added in soluble form. Antibodies or VHHs to CD28 or controls were added at the indicated concentration in soluble form.
CD80 is one of the two main ligands for mCD28 along with CD86. The extracellular domain of CD80 fused to an Fc moiety has been used as an immune stimulatory molecule and is under investigation as a cancer therapy. In order to examine the effect of sCD28 on CD80-Fc efficacy, isolated CD3 human T cells were stimulated with plate bound anti-CD3 antibody (OKT3, 2 μg/mL) in the presence of 2 μg/mL soluble recombinant human CD80-Fc.

human PBMCs [7] = assay: SEB or CMV stimulated PBMCs with anti-PD1 and soluble CD28; format: cell-based
SCC-25 cells = assay: Co-culture of SCC-25 cancer cell line with monocytes in trans-well assay; format: cell-based, human
Description: Co-culture of SCC-25 cancer cell line with monocytes in trans-well based assay—4×10^4 SCC-25 cells were plated on the bottom of 24 well plate with 1×10^5 monocytes placed on cell culture insert (Millipore, Cat. No. MCHT241148) with or without indicated treatments for 4 days in starvation media without serum.
Next, cells of the head and neck cancer cell line SCC-25 were incubated either alone or with monocytes in a trans-well assay. SCC-25 cells grown alone were administered IL-6 as a positive control, and indeed cell proliferation, as measured by MTT (FIG. 9C, upper) and as measured by % confluency (FIG. 9C, lower), was increased.

human PBMCs [8] = assay: CMV stimulation of PBMCs with ectopic recombinant human CD28 or CTLA-4, cytokine ELISA/multiplex; format: cell-based; details: CMV 0.5 μg/mL
[9] = CMV peptide 0.5 μg/mL, 5 days, increasing sCD28

Molecule: CC#CCOc1ccc(S(=O)(=O)N2CCSC(C)(C)[C@@H]2C(=O)NO)cc1 [TMI-1]
- viability of the immune cells (MTT) (human PBMCs [1]): no significant difference

Molecule: CNC(=O)[C@@H](NC(=O)[C@H](CCCc1ccccc1)[C@H](C)N(O)C=O)C(C)(C)C [GI254023X]
- viability of the immune cells (MTT) (human PBMCs [1]; SEB 1 ng/mL, with vs without ADAM inhibitor): no significant difference
- sCD28 release from activated immune cells (human PBMCs [2]): almost complete inhibition of sCD28 release

Molecule: sCD28: recombinant human CD28 lacking the transmembrane and cytoplasmic domains
- CD80-Fc needed for immune response in presence of sCD28 (isolated PBMCs): an increased amount of CD80-Fc was required
- effect on MK-3475 (PBMC of cancer patients; combination): rendered the effect of MK-3475 nonexistent
- concentration of human IFN gamma in the supernatant (PBMC of cancer patients; with or without MK-3475): greatly reduced
- lymphocyte cluster formation (human PBMCs [3]): diminish the amount and size of cluster formation
- effect on anti-PD-1 therapy [4]: nearly completely abrogated in two of the mice
- IFN gamma secretion [5, 9]: inhibit IFN gamma secretion
- IL-1B secretion [5, 9]: increasing the secretion
- IL-10 secretion [5, 9]: increasing the secretion
- TGF beta secretion [5, 9]: increasing the secretion
- effect of MK-3475 in the presence of sCD28 ([5]; MK3475 5 μg/mL with sCD28): significantly reduced
- PD-L1 expression on monocytes (isolated human monocytes; 48 hours): upregulated
- PD-L2 expression on monocytes (isolated human monocytes; 48 hours): upregulated
- IDO expression in monocytes (isolated human monocytes; 48 hr): strongly enhanced IDO expression
- effect on CD80-Fc secondary activation ([6]; constant CD80-Fc, titration of sCD28): counteracted the secondary activation effect of the CD80-Fc
- effect on MK-3475 immune activation (human PBMCs [7]; sCD28 2 and 10 μg/mL combined with MK3475 5 μg/mL): abrogated completely this immune activation effect
- cell proliferation (MTT and % confluency) (SCC-25 cells; coculture with monocytes): by far the greatest increase
- IFN gamma secretion (human PBMCs [8]): dose-dependent inhibition of IFN gamma secretion
- IL-6 secretion (human PBMCs [8]): increase IL-6 cytokine secretion
- interleukin-10 secretion (human PBMCs [8]): elevation

Molecule: IL-6: cytokine given to SCC-25 cells as a positive control [reference compound]
- cell proliferation (MTT and % confluency) (SCC-25 cells; SCC-25 cells grown alone, positive control): increased

Molecule: Pembrolizumab [MK-3475, reference compound]
- IFN gamma secretion ([5]; MK3475 5 μg/mL): increased IFN gamma secretion
- TGF beta secretion ([5]; MK3475 5 μg/mL): decreased TGF beta secretion
- proinflammatory cytokine secretion (IFN gamma and IL-2) (human PBMCs [7]; MK3475 5 μg/mL, 3 days): increased proinflammatory cytokine secretion

B1: CD80-Fc: extracellular domain of CD80 fused to an Fc moiety (protein)
chain: VIHVTKEVKEVATLSCGHNVSVEELAQTRIYWQKEKKMVLTMMSGDMNIWPEYKNRTIFDITNNLSIVILALRPSDEGTYECVVLKYEKDAFKREHLAEVTLSVKADFPTPSISDFEIPTSNIRRIICSTSGGFPEPHLSWLENGEELNAINTTVSQDPETELYAVSSKLDFNMTTNHSFMCLIKYGHLRVNQTFNWNTTKQEHFPDN
modifications: left off: a dimerising Fc or GST
notes: extracellular domain of CD80 fused to an Fc moiety
- IFN gamma secretion ([6]; CD80-Fc 2 μg/mL): increased IFN gamma secretion
